From patent US11655448B2, “Placenta-derived matrix and methods of preparing and use thereof” (LIFENET HEALTH, priority 2015, dated 2023)

Key:
[1] = test system: dorsal root ganglia (DRGs); test: Dorsal root ganglia attachment and growth on substrates; assay type: cell-based
Method: The ability for ectodermal cell attachment and growth on HuMATRIX was also assessed using dorsal root ganglia (DRGs). Near 100% attachment of DRGs was observed on HuMATRIX, Laminin, and decellularized placenta with urea extraction, but nearly no DRGs attached to culture plastic alone, with the cells stained for beta-III-tubulin and DAPI to assess the cell morphology.

MCF7 tumor cell = details: reported in the literature; cited from earlier work

Molecule: Laminin
- attachment of DRGs [1]: ~100%

B1: Placental lactogen: human chorionic sommatomammotropin (aka placental lactogen) found in HuMATRIX (protein, UniProt P0DML2 27-217, looked up)
Chorionic somatomammotropin …: VQTVPLSRLFDHAMLQAHRAHQLAIDTYQEFEETYIPKDQKYSFLHDSQTSFCFSDSIPTPSNMEETQQKSNLELLRISLLLIESWLEPVRFLRSMFANNLVYDTSDSDDYHLLKDLEEGIQTLMGRLEDGSRRTGQILKQTYSKFDTNSHNHDALLKNYGLLYCFRKDMDKVETFLRMVQCRSVEGSCGF
- increase in MCF7 tumor cell proliferation (MCF7 tumor cell): 4.4 fold
